Results published in PubChem BioAssay (NCI).
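Compound exposure: 48 hours, 5 concentrations, 96-well plates. At the GI50, growth is halved. TGI: concentration producing complete growth inhibition.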

Legend:
Experiment in all cases: DTP human tumour cell line panel, 48 h
T-47D breast = test system: T-47D breast
HOP-62 NSCLC = test system: HOP-62 NSCLC
K-562 leukemia = test system: K-562 leukemia
HL-60(TB) leukemia = test system: HL-60(TB) leukemia
NCI-H23 lung = test system: NCI-H23 lung
OVCAR-3 ovarian = test system: OVCAR-3 ovarian
SF-295 CNS = test system: SF-295 CNS
KM12 colon = test system: KM12 colon
HCC-2998 colon = test system: HCC-2998 colon
SF-268 CNS = test system: SF-268 CNS
SK-MEL-2 melanoma = test system: SK-MEL-2 melanoma
IGROV1 ovarian = test system: IGROV1 ovarian
TK-10 renal = test system: TK-10 renal
SK-MEL-5 melanoma = test system: SK-MEL-5 melanoma
SW-620 colon = test system: SW-620 colon
M14 melanoma = test system: M14 melanoma
ACHN renal = test system: ACHN renal
RPMI-8226 leukemia = test system: RPMI-8226 leukemia
OVCAR-8 ovarian = test system: OVCAR-8 ovarian
UACC-257 melanoma = test system: UACC-257 melanoma
COLO 205 colon = test system: COLO 205 colon
NCI/ADR-RES ovarian = test system: NCI/ADR-RES ovarian
RXF 393 renal = test system: RXF 393 renal
NCI-H460 lung = test system: NCI-H460 lung
HS 578T breast = test system: HS 578T breast
786-0 renal = test system: 786-0 renal
CAKI-1 renal = test system: CAKI-1 renal
SK-MEL-28 melanoma = test system: SK-MEL-28 melanoma
MOLT-4 leukemia = test system: MOLT-4 leukemia
MDA-MB-231 breast = test system: MDA-MB-231 breast
A498 renal = test system: A498 renal
OVCAR-4 ovarian = test system: OVCAR-4 ovarian
U251 CNS = test system: U251 CNS
CCRF-CEM leukemia = test system: CCRF-CEM leukemia
UO-31 renal = test system: UO-31 renal
DU-145 prostate = test system: DU-145 prostate
MDA-MB-435 = test system: MDA-MB-435
HCT-15 colon = test system: HCT-15 colon
SNB-19 CNS = test system: SNB-19 CNS
SK-OV-3 ovarian = test system: SK-OV-3 ovarian
OVCAR-5 ovarian = test system: OVCAR-5 ovarian
EKVX NSCLC = test system: EKVX NSCLC
HT29 colon = test system: HT29 colon
SF-539 CNS = test system: SF-539 CNS
HCT-116 colon = test system: HCT-116 colon
HOP-92 NSCLC = test system: HOP-92 NSCLC
MALME-3M melanoma = test system: MALME-3M melanoma
LOX IMVI melanoma = test system: LOX IMVI melanoma
BT-549 breast = test system: BT-549 breast
NCI-H522 lung = test system: NCI-H522 lung
NCI-H226 lung = test system: NCI-H226 lung
SR leukemia = test system: SR leukemia
MCF7 breast = test system: MCF7 breast
SN12C renal = test system: SN12C renal
PC-3 prostate = test system: PC-3 prostate
SNB-75 CNS = test system: SNB-75 CNS
UACC-62 melanoma = test system: UACC-62 melanoma
A549 NSCLC = test system: A549 NSCLC

`COc1ccc(C(C)=C(c2ccc(OCCN(C)C)cc2)c2ccc(OCCN(C)C)cc2)cc1` showed a GI50 (T-47D breast) of 0.374 µM, a TGI (T-47D breast) of 0.966 µM and a GI50 (HOP-62 NSCLC) of 1.36 µM. It also gave a TGI (HOP-62 NSCLC) of 3.42 µM, a GI50 (K-562 leukemia) of 0.395 µM and a TGI (K-562 leukemia) of 0.918 µM. For the same molecule, the GI50 (HL-60(TB) leukemia) was 0.477 µM, the TGI (HL-60(TB) leukemia) was 0.999 µM and the GI50 (NCI-H23 lung) was 2.95 µM. For the same molecule, the TGI (NCI-H23 lung) was 6.53 µM, the GI50 (OVCAR-3 ovarian) was 0.585 µM and the TGI (OVCAR-3 ovarian) was 1.79 µM. It also gave a GI50 (SF-295 CNS) of 0.51 µM, a TGI (SF-295 CNS) of 1.18 µM and a GI50 (KM12 colon) of 1.07 µM. For the same molecule, the TGI (KM12 colon) was 4.21 µM, the GI50 (HCC-2998 colon) was 0.858 µM and the TGI (HCC-2998 colon) was 3.49 µM. It also gave a GI50 (SF-268 CNS) of 1.11 µM, a TGI (SF-268 CNS) of 4.35 µM and a GI50 (SK-MEL-2 melanoma) of 0.588 µM. For the same molecule, the TGI (SK-MEL-2 melanoma) was 1.39 µM, the GI50 (IGROV1 ovarian) was 1.1 µM and the TGI (IGROV1 ovarian) was 3.92 µM. It also gave a GI50 (TK-10 renal) of 3.31 µM, a TGI (TK-10 renal) of 6.86 µM and a GI50 (SK-MEL-5 melanoma) of 0.432 µM. For the same molecule, the TGI (SK-MEL-5 melanoma) was 0.794 µM, the GI50 (SW-620 colon) was 0.639 µM and the TGI (SW-620 colon) was 2.22 µM. It also gave a GI50 (M14 melanoma) of 0.427 µM, a TGI (M14 melanoma) of 0.824 µM and a GI50 (ACHN renal) of 0.763 µM. It also gave a TGI (ACHN renal) of 2.51 µM, a GI50 (RPMI-8226 leukemia) of 0.584 µM and a TGI (RPMI-8226 leukemia) of 1.51 µM. It also gave a GI50 (OVCAR-8 ovarian) of 1.17 µM, a TGI (OVCAR-8 ovarian) of 4.54 µM and a GI50 (UACC-257 melanoma) of 0.469 µM. For the same molecule, the TGI (UACC-257 melanoma) was 0.957 µM, the GI50 (COLO 205 colon) was 0.432 µM and the TGI (COLO 205 colon) was 0.908 µM. It also gave a GI50 (NCI/ADR-RES ovarian) of 1.34 µM, a TGI (NCI/ADR-RES ovarian) of 4.68 µM and a GI50 (RXF 393 renal) of 0.381 µM. It also gave a TGI (RXF 393 renal) of 0.934 µM, a GI50 (NCI-H460 lung) of 0.828 µM and a TGI (NCI-H460 lung) of 2.94 µM. It also gave a GI50 (HS 578T breast) of 0.884 µM, a TGI (HS 578T breast) of 4.25 µM and a GI50 (786-0 renal) of 0.445 µM. For the same molecule, the TGI (786-0 renal) was 1.1 µM, the GI50 (CAKI-1 renal) was 0.647 µM and the TGI (CAKI-1 renal) was 2.31 µM. The GI50 (SK-MEL-28 melanoma) was 0.464 µM, the TGI (SK-MEL-28 melanoma) was 0.904 µM and the GI50 (MOLT-4 leukemia) was 0.544 µM. The TGI (MOLT-4 leukemia) was 1.61 µM, the GI50 (MDA-MB-231 breast) was 0.684 µM and the TGI (MDA-MB-231 breast) was 2.29 µM. The GI50 (A498 renal) was 1.13 µM, the TGI (A498 renal) was 4.15 µM and the GI50 (OVCAR-4 ovarian) was 0.865 µM. It also gave a TGI (OVCAR-4 ovarian) of 3.25 µM, a GI50 (U251 CNS) of 0.679 µM and a TGI (U251 CNS) of 2.61 µM. The GI50 (CCRF-CEM leukemia) was 0.624 µM, the TGI (CCRF-CEM leukemia) was 2.36 µM and the GI50 (UO-31 renal) was 0.804 µM. It also gave a TGI (UO-31 renal) of 2.11 µM, a GI50 (DU-145 prostate) of 1.81 µM and a TGI (DU-145 prostate) of 5.18 µM. For the same molecule, the GI50 (MDA-MB-435) was 0.507 µM, the TGI (MDA-MB-435) was 1.13 µM and the GI50 (HCT-15 colon) was 0.582 µM. For the same molecule, the TGI (HCT-15 colon) was 2.05 µM, the GI50 (SNB-19 CNS) was 1.33 µM and the TGI (SNB-19 CNS) was 4.86 µM. The GI50 (SK-OV-3 ovarian) was 3.91 µM, the TGI (SK-OV-3 ovarian) was 7.51 µM and the GI50 (OVCAR-5 ovarian) was 1.72 µM. For the same molecule, the TGI (OVCAR-5 ovarian) was 5.01 µM, the GI50 (EKVX NSCLC) was 1.65 µM and the TGI (EKVX NSCLC) was 5.25 µM. It also gave a GI50 (HT29 colon) of 0.49 µM, a TGI (HT29 colon) of 1.63 µM and a GI50 (SF-539 CNS) of 0.468 µM. The TGI (SF-539 CNS) was 0.948 µM, the GI50 (HCT-116 colon) was 0.415 µM and the TGI (HCT-116 colon) was 2.45 µM. The GI50 (HOP-92 NSCLC) was 0.633 µM, the TGI (HOP-92 NSCLC) was 3.17 µM and the GI50 (MALME-3M melanoma) was 0.439 µM. The TGI (MALME-3M melanoma) was 0.893 µM, the GI50 (LOX IMVI melanoma) was 0.343 µM and the TGI (LOX IMVI melanoma) was 0.741 µM. It also gave a GI50 (BT-549 breast) of 1.85 µM, a TGI (BT-549 breast) of 5.24 µM and a GI50 (NCI-H522 lung) of 0.866 µM. It also gave a TGI (NCI-H522 lung) of 3.62 µM, a GI50 (NCI-H226 lung) of 3.03 µM and a TGI (NCI-H226 lung) of 6.89 µM. For the same molecule, the GI50 (SR leukemia) was 0.321 µM, the TGI (SR leukemia) was 0.941 µM and the GI50 (MCF7 breast) was 0.243 µM. For the same molecule, the TGI (MCF7 breast) was 0.889 µM, the GI50 (SN12C renal) was 2 µM and the TGI (SN12C renal) was 6.09 µM. For the same molecule, the GI50 (PC-3 prostate) was 1.36 µM, the TGI (PC-3 prostate) was 4.81 µM and the GI50 (SNB-75 CNS) was 2.28 µM. It also gave a TGI (SNB-75 CNS) of 5.95 µM, a GI50 (UACC-62 melanoma) of 0.533 µM and a TGI (UACC-62 melanoma) of 1.25 µM. It also gave a GI50 (A549 NSCLC) of 1.03 µM and a TGI (A549 NSCLC) of 4.48 µM.
